# Data from patent US20140093884A1, “Process for Identifying Novel Anti-Inflammatory Molecules with Reduced Direct Transrepression of Genes Induced by Glucocorticoids” (UNIVERSITE DE STRASBOURG, priority 2011, published 2014).
# What was measured:
# [1] = test system: TSLP; test: Nuclear run-on assay of TSLP expression; type: in vivo, mouse
# Source text: Nuclear run-on, EMSA, 3C and Luciferase assays. Nuclear Run-on and EMSA (Carey and Smale., 2001), 3C (Liu et al., 2005) and Luciferase assays (Promega kit) were as described. […] Although the basal TSLP level was similar in vehicle-treated WT and GR^ep−/− mice, FA blocked MC-induced TSLP expression in WT, but not in GR^ep−/− mice (not shown).
# [2] = test system: CYP24A1 gene (a VitD3 target); test: CYP24A1 transcript levels in mouse ear epidermis after topical treatment (Q-RT-PCR); type: in vivo; details: mouse ears, FIG. 10
# Source text: Mice. […] Real time PCR. Total RNA was reverse transcribed using hexamers, followed by Q-PCR, as reported (Li et al., 2005). The GC agonist fluocinolone acetonide (FA) was applied to ears of mice concomitantly treated with the “low-calcemic” Vitamin D3 (VitD3) analog MC903 (Calcipotriol; hereafter called MC) to trigger TSLP expression (Li et al., 2006). […] As expected, the expression of the GC-inducible GPX3 (glutathione peroxidase 3) gene which harbours a (+)GRE (Tuckermann et al., 1999) was enhanced by FA (FIG. 10) and inhibited by RU co-treatment, while FA or RU had no effect on MC-dependent expression of the CYP24A1 gene (a VitD3 target) (FIG. 10).
# [3] = test system: (+)GRE (PGL3(VDRE) (+)GRE luciferase reporter); test: Luciferase reporter assay in A549 cells, PGL3(VDRE) (+)GRE vector; type: cell-based, human; details: FA
# Method: Luciferase reporter assay. A549 cells seeded on 24-well tissue culture plates overnight at 70% confluency were transfected with 100 ng pCMV β galactosidase, 200 ng pGL3 reporter plasmids and wherever indicated, with 600 ng pSG5 hVDR plasmid (Green et al., 1988) into each well and maintained in medium containing charcoal treated FCS. 24 hours post-transfection, medium was changed and different compounds were added to it for 6 hours. Final concentrations of the compounds are: FA, 500 nM; Dex or RU24858, 300 nM or 500 nM (wherever 300 nM Dex or RU was used, it is indicated in the figure, in all other cases, 500 nM concentration was used); active vitamin D3, 1 μM; IL-1β, 5 ng/ml; BAY 11-7082, 5 μM, JNK inhibitor II, 25 μM. Luciferase assay was carried out as instructed (Promega). Normalized values are reported as the mean±SEM; each value originates from at least three individual transfections with assays performed in duplicate. […]
# [4] = target: T1, GR binding to IR nGREs (Homo sapiens, UniProt P04150); test: ChIP assay of GR binding to IR0 to IR5 nGRE reporter plasmids in A549 cells; type: cell-based; details: upon FA addition
# T1 construct: GR-expressing cells are in vitro cultured cells, preferably human lung epithelial carcinoma cells A549; endogenous in cells; host or cells: A549 (CCL-185, ATCC)
# T1 sequence (P04150 1-777): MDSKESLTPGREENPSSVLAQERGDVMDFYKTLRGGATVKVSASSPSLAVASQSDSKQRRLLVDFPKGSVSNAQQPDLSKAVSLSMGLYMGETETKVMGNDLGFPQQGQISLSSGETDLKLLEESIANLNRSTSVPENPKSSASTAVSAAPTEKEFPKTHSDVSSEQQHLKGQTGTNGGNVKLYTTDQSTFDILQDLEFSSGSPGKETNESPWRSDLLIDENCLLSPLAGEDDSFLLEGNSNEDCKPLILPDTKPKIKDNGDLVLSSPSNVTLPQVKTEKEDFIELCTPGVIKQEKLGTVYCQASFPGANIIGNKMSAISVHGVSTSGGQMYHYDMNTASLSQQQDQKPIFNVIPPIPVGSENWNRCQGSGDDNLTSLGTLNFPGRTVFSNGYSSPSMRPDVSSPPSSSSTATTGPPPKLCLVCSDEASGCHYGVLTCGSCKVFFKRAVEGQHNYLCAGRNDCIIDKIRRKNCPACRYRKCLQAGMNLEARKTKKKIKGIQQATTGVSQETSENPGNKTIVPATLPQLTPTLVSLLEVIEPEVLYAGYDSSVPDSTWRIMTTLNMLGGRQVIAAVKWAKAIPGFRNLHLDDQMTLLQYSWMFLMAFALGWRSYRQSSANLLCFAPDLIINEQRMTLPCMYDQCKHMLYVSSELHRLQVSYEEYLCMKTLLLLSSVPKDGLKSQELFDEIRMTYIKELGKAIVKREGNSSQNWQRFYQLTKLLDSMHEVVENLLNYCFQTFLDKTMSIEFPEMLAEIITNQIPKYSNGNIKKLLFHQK
# Method: For ChIP assays to test GR and cofactor binding to the nGRE, +GRE or NFκB region of various luciferase reporter plasmids, ˜60% confluent A549 cells in 100 mm TC dish were transfected with 2 μg of respective plasmids using fugene 6 reagent (Roche) and maintained in charcoal treated FCS containing medium. 44 hours post-transfection, 500 nM FA or Dex or RU24858 and/or 5 μM RU486, 5 ng/ml IL-1β (final conc.) was added to the medium for 2 hours, followed by formaldehyde treatment and processing as described above.
# To investigate whether the 1 bp spacer between the inverted repeated motifs of TSLP IR1 nGRE was critical for its repressing function, pGL3-based luciferase plasmids containing the VDRE and TSLP nGRE motifs spaced by 0 to 5 bases (IR0 to IR5 nGREs) were transfected into A549 cells.
smiles,measurement,setting,value
"CC1(C)O[C@@H]2C[C@H]3[C@@H]4C[C@H](F)C5=CC(=O)C=C[C@]5(C)[C@@]4(F)[C@@H](O)C[C@]3(C)[C@]2(C(=O)CO)O1 [FA, fluocinolone acetonide]",nature of GR-mediated FA inhibition of TSLP expression,[1],transcriptional
same,effect on MC-dependent expression of the CYP24A1 gene,[2],no effect
same,luciferase expression when IR1 nGRE replaced by a (+)GRE,[3],increase
same,GR binding to IR0 nGRE (ChIP),[4],less efficient
same,GR binding to IR1 and IR2 nGREs (ChIP),[4],similarly bound
same,"GR binding to IR3, IR4 and IR5 nGREs (ChIP)",[4],not detectable
